Experimental data from patent US20240327382A1 (ALMAC DISCOVERY LIMITED, priority 2021, published 2024).
Where a name gives a salt, the structure may show the parent alone.

target: T1, Full-length USP19 (Homo sapiens, UniProt O94966); assay: USP19 fluorescence polarisation (FP) assay, Ubiquitin-Lys-TAMRA substrate; type: biochemical; conditions: average of at least two duplicate experiments
T1 construct: Full-length USP19 was purchased from Boston Biochem (E-576); purchased Boston Biochem E-576
T1 sequence (O94966 1-1318): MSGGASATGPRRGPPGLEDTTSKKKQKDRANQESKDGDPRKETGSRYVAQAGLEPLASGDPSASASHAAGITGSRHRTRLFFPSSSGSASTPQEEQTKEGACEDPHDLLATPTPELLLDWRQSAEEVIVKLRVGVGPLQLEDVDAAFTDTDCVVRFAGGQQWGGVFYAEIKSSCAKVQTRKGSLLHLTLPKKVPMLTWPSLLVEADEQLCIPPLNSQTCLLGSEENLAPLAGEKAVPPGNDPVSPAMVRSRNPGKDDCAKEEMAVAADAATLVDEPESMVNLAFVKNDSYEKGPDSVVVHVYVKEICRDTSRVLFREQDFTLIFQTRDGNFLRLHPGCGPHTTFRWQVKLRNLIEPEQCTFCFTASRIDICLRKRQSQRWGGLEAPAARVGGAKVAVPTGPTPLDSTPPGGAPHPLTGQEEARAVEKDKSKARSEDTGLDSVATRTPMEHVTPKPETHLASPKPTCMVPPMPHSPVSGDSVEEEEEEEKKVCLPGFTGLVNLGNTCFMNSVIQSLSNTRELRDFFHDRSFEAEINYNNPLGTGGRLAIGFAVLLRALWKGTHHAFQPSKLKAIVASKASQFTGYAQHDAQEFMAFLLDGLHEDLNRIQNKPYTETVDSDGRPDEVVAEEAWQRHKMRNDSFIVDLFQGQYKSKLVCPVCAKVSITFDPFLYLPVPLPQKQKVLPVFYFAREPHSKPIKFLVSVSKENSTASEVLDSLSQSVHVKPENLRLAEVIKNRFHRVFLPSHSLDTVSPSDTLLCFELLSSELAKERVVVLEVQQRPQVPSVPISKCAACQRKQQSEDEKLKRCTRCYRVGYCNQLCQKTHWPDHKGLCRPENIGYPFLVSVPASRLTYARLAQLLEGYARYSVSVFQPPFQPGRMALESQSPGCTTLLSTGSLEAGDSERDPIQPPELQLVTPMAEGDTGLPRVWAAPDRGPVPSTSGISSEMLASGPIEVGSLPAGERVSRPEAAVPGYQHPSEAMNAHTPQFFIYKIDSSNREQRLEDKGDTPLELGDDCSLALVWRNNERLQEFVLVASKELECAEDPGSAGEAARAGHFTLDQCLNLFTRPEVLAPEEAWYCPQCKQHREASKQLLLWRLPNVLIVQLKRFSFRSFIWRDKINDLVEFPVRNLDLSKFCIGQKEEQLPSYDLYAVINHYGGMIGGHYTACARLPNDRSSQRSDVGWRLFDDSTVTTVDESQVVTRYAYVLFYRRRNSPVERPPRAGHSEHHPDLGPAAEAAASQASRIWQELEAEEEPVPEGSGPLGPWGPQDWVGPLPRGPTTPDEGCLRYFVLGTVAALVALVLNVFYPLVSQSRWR
Procedure, shortened: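 Fluorescence polarisation (excitation 530 nm, parallel and perpendicular emission at 575 nm) was recorded every 15 min for 90 min after adding the ubiquitin-Lys-TAMRA isopeptide (500 nM as dispensed). Beforehand, the full-length enzyme (2.5 nM as dispensed) sat 30 min at RT with compound diluted from 200 μM to 2 μM in HEPES pH 7.4 buffer with 150 mM NaCl, 5 mM DTT, 0.05% BSA and 0.05% CHAPS. Values normalised to uninhibited wells gave IC50s by non-linear fitting, each the mean of two or more duplicate runs.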

IC50 [nM]	Structure (SMILES)
< 10	CN[C@@H]1CCN(C(=O)N2CC[C@@H](Cn3cnc(-c4ccccc4OC)cc3=O)C3(CCCC3)C2)[C@H](c2ccc(F)c(F)c2)C1 [Example 138, 3-(((R)-7-((2S,4R)-2-(3,4-Difluorophenyl)-4-(methylamino)piperidine-1-carbonyl)-7-azaspiro[4.5]decan-10-yl)methyl)-6-(2-methoxyphenyl)pyrimidin-4(3H)-one]
< 10	O=C(N1CC[C@@H](Cn2cnc(-c3ccccc3)cc2=O)C2(CCCC2)C1)N1CC[C@@H](NCC(F)F)C[C@H]1c1ccccc1 [Example 71, 3-(((R)-7-((2S,4R)-4-((2,2-Difluoroethyl)amino)-2-phenylpiperidine-1-carbonyl)-7-azaspiro[4.5]decan-10-yl)methyl)-6-phenylpyrimidin-4(3H)-one]
< 10	Cc1cc(C)nc(CN[C@@H]2CCN(C(=O)N3CC[C@@H](Cn4cnc(-c5ccccc5)cc4=O)C4(CCCC4)C3)[C@H](c3ccccc3)C2)n1 [Example 194, 3-(((R)-7-((2S,4R)-4-(((4,6-Dimethylpyrimidin-2-yl)methyl)amino)-2-phenylpiperidine-1-carbonyl)-7-azaspiro[4.5]decan-10-yl)methyl)-6-phenylpyrimidin-4(3H)-one]
< 10	CN[C@@H]1CCN(C(=O)N2CC[C@@H](Cn3ccc(-c4ccccc4OC)cc3=O)C3(CCCC3)C2)[C@H](c2cc(F)ccc2F)C1 [Example 113, 1-(((R)-7-((2S,4R)-2-(2,5-Difluorophenyl)-4-(methylamino)piperidine-1-carbonyl)-7-azaspiro[4.5]decan-10-yl)methyl)-4-(2-methoxyphenyl)pyridin-2(1H)-one]
< 10	O=C(O)CN[C@@H]1CCN(C(=O)N2CC[C@@H](Cn3cnc(-c4ccccc4)cc3=O)C3(CCCC3)C2)[C@H](c2cc(F)ccc2F)C1 [Example 158]
< 10	O=C(N1CC[C@@H](Cn2cnc(-c3ccccc3)cc2=O)C2(CCCC2)C1)N1CC[C@@H](NCCF)C[C@H]1c1cccc(F)c1 [Example 196, 3-(((R)-7-((2S,4R)-4-((2-Fluoroethyl)amino)-2-(3-fluorophenyl)piperidine-1-carbonyl)-7-azaspiro[4.5]decan-10-yl)methyl)-6-phenylpyrimidin-4(3H)-one]
< 10	CN[C@@H]1CCN(C(=O)N2CC[C@@H](Cn3cnc4ccc(Cl)cc4c3=O)C3(CCCC3)C2)[C@H](c2cc(F)ccc2F)C1 [Example 198, 6-Chloro-3-(((R)-7-((2S,4R)-2-(2,5-difluorophenyl)-4-(methylamino)piperidine-1-carbonyl)-7-azaspiro[4.5]decan-10-yl)methyl)quinazolin-4(3H)-one]
< 10	N[C@@H]1CCN(C(=O)N2CCC(Cn3cnc4ccc(F)cc4c3=O)C3(CCCC3)C2)[C@H](c2ccccc2)C1 (stereo partly drawn) [Example 27, 3-((7-((2S,4R)-4-Amino-2-phenylpiperidine-1-carbonyl)-7-azaspiro[4.5]decan-10-yl)methyl)-6-fluoroquinazolin-4(3H)-one]
10 to 100	N[C@@H]1CCN(C(=O)N2CCC(CN3CCOCC3=O)C3(CCCC3)C2)[C@H](c2ccccc2)C1 (stereo partly drawn) [Example 41, 4-((7-((2S,4R)-4-Amino-2-phenylpiperidine-1-carbonyl)-7-azaspiro[4.5]decan-10-yl)methyl) morpholin-3-one]
< 10	CCN[C@@H]1CCN(C(=O)N2CC[C@@H](Cn3ccc(-c4ccccc4)cc3=O)C3(CCCC3)C2)[C@H](c2ccccc2)C1 [Example 45, 1-(((R)-7-((2S,4R)-4-(Ethylamino)-2-phenylpiperidine-1-carbonyl)-7-azaspiro[4.5]decan-10-yl)methyl)-4-phenylpyridin-2(1H)-one]
< 10	N[C@@H]1CCN(C(=O)N2CC[C@@H](Cn3cnc4ccc(F)cc4c3=O)C3(CCCC3)C2)[C@H](c2cc(F)cc(F)c2)C1 [Example 181, 3-(((R)-7-((2S,4R)-4-Amino-2-(3,5-difluorophenyl)piperidine-1-carbonyl)-7-azaspiro[4.5]decan-10-yl)methyl)-6-fluoroquinazolin-4(3H)-one hydrochloride]
1000 to 20000	COC[C@H](CC(F)(F)F)C(=O)N1CCC(Cn2cnc(-c3ccccc3)cc2=O)C2(CCCC2)C1 (stereo partly drawn) [Example 7, 6-Phenyl-3-((7-((S)-4,4,4-trifluoro-2-(methoxymethyl)butanoyl)-7-azaspiro[4.5]decan-10-yl)methyl)pyrimidin-4(3H)-one]
10 to 100	Cc1cccnc1CN[C@@H]1CCN(C(=O)N2CC[C@@H](Cn3cnc(-c4ccccc4)cc3=O)C3(CCCC3)C2)[C@H](c2ccccc2)C1 [Example 193, 3-(((R)-7-((2S,4R)-4-(((3-Methylpyridin-2-yl)methyl)amino)-2-phenylpiperidine-1-carbonyl)-7-azaspiro[4.5]decan-10-yl)methyl)-6-phenylpyrimidin-4(3H)-one]
< 10	COc1ccccc1-c1ccn(C[C@@H]2CCN(C(=O)N3CC[C@@H](N)C[C@H]3c3cc(F)ccc3F)CC23CCCC3)c(=O)c1 [Example 89, 1-(((R)-7-((2S,4R)-4-Amino-2-(2,5-difluorophenyl)piperidine-1-carbonyl)-7-azaspiro[4.5]decan-10-yl)methyl)-4-(2-methoxyphenyl)pyridin-2(1H)-one]
< 10	CN[C@@H]1CCN(C(=O)N2CC[C@@H](Cn3cnc(-c4ccccc4F)cc3=O)C3(CCCC3)C2)[C@H](c2cccc(F)c2F)C1 [Example 140, 3-(((R)-7-((2S,4R)-2-(2,3-Difluorophenyl)-4-(methylamino)piperidine-1-carbonyl)-7-azaspiro[4.5]decan-10-yl)methyl)-6-(2-fluorophenyl)pyrimidin-4(3H)-one]
< 10	COc1ccccc1-c1ccn(C[C@@H]2CCN(C(=O)N3CC[C@@H](N)C[C@H]3c3cccc(F)c3)CC23CCCC3)c(=O)c1 [Example 88, 1-(((R)-7-((2S,4R)-4-Amino-2-(3-fluorophenyl)piperidine-1-carbonyl)-7-azaspiro[4.5]decan-10-yl)methyl)-4-(2-methoxyphenyl)pyridin-2(1H)-one]
< 10	CN[C@@H]1CCN(C(=O)N2CC[C@@H](Cn3ccc(-c4ccccc4F)cc3=O)C3(CCCC3)C2)[C@H](c2ccccc2)C1 [Example 55, 4-(2-Fluorophenyl)-1-(((R)-7-((2S,4R)-4-(methylamino)-2-phenylpiperidine-1-carbonyl)-7-azaspiro[4.5]decan-10-yl)methyl)pyridin-2(1H)-one]
< 10	CN[C@@H]1CCN(C(=O)N2CC[C@@H](Cn3cnc(-c4ccccc4)cc3=O)C3(CCCC3)C2)[C@H](c2cc(F)cc(F)c2)C1 [Example 122, 3-(((R)-7-((2S,4R)-2-(3,5-Difluorophenyl)-4-(methylamino)piperidine-1-carbonyl)-7-azaspiro[4.5]decan-10-yl)methyl)-6-phenylpyrimidin-4(3H)-one]
100 to 1000	N[C@@H]1CCN(C(=O)N2CCC(Cn3cnccc3=O)C3(CCCC3)C2)[C@H](c2ccccc2)C1 (stereo partly drawn) [Example 30, 3-((7-((2S,4R)-4-Amino-2-phenylpiperidine-1-carbonyl)-7-azaspiro[4.5]decan-10-yl)methyl) pyrimidin-4(3H)-one]
< 10	CN[C@@H]1CCN(C(=O)N2CC[C@@H](Cn3cnc(-c4ccccc4F)cc3=O)C3(CCCC3)C2)[C@H](c2ccc(F)c(F)c2)C1 [Example 142, 3-(((R)-7-((2S,4R)-2-(3,4-Difluorophenyl)-4-(methylamino)piperidine-1-carbonyl)-7-azaspiro[4.5]decan-10-yl)methyl)-6-(2-fluorophenyl)pyrimidin-4(3H)-one]
10 to 100	O=C(N1CC[C@@H](Cn2ccc(-c3ccccc3)cc2=O)C2(CCCC2)C1)N1CC[C@@H](NC2(CF)COC2)C[C@H]1c1ccccc1 [Example 112, 1-(((R)-7-((2S,4R)-4-((3-(Fluoromethyl)oxetan-3-yl)amino)-2-phenylpiperidine-1-carbonyl)-7-azaspiro[4.5]decan-10-yl)methyl)-4-phenylpyridin-2(1H)-one]
